Assay results taken from ChEMBL document CHEMBL5724558, “Image-based profiling of drug vulnerabilities in CRC organoids” (2024).
“And” between values parts separate entries of the source, which are not always exact repeats. Equal entries are not always repeated.

Experiments:
Assay type in all cases: functional, Homo sapiens
Set-up in all cases: dose or concentration left out as unconfirmed
[1] = tested on: Colon cancer organoid; assay: Image-based profiling of donated chemical probes and chemogenomic kinase set in O21 CRC organoid. Image analysis is performed on the sum area metric, and the data were normalized to the DMSO control. After imaging the organoid viability is measured using the OneGloEX Luciferase Assay System. The normalized viability data and sum area are reported.
[2] = tested on: Colon cancer organoid; assay: Image-based profiling of donated chemical probes and chemogenomic kinase set in O09 CRC organoid. Image analysis is performed on the sum area metric, and the data were normalized to the DMSO control. After imaging the organoid viability is measured using the OneGloEX Luciferase Assay System. The normalized viability data and sum area are reported.
[3] = tested on: Colon cancer organoid; assay: Image-based profiling of donated chemical probes and chemogenomic kinase set in O06 CRC organoid. Image analysis is performed on the sum area metric, and the data were normalized to the DMSO control. After imaging the organoid viability is measured using the OneGloEX Luciferase Assay System. The normalized viability data and sum area are reported.

| Compound | Cell Viability ([1]; Replication number 1) | Cell Viability ([1]; Replication number 2) | Cell Viability ([2]; Replication number 1) | Cell Viability ([2]; Replication number 2) | Cell Viability ([3]; Replication number 1) | Cell Viability ([3]; Replication number 2) |
| --- | --- | --- | --- | --- | --- | --- |
| Cn1c(-c2csc(C3CCN(CC4=NC5N=CC=CC5N4)CC3)n2)nc2ccccc21 (stereo not given) [BAY-070] | 109.219% and 99.8545% | 106.656% and 102.481% | 60.3085% and 58.8971% | 70.2327% and 76.9231% | 51.6449% and 96.9231% | 54.618% and 76.4056% |
| COc1cc(N(C)c2ccnc3ccc(C(F)(F)F)cc23)cc(OC)c1OC | 98.7422% and 93.5085% | 96.4741% and 84.441% | 149.162% and 94.0382% | 152.627% and 99.9775% | 100.25% and 97.181% | 103.599% and 93.0279% |
| O=C(O)c1ccc2c(c1)nc(Nc1cccc(Cl)c1)c1ccncc12 [SILMITASERTIB] | 103.567% and 112.056% | 102.008% and 128.967% | 75.9271% and 48.6208% | 96.2856% and 65.3282% | 95.4776% and 72.7779% | 97.8% and 96.4524% |
| O=C(NOCC1CC1)c1ccc(F)c(F)c1Nc1ccc(I)cc1Cl [CI-1040] | 35.0082% and 32.446% | 40.3855% and 37.5387% | 15.162% and 31.6659% | 27.5568% and 31.5843% | 3.322% and 9.147% | 3.495% and 11.5373% |
| CCCc1cc(C)[nH]c(=O)c1CNC(=O)c1cc(-c2ccnc(N3CCN(C)CC3)c2)cc2c1cnn2C(C)C | 85.4576% and 83.4749% | 100.02% and 92.3628% | 138.622% and 115.688% | 134.993% and 114.602% | 109.583% and 102.443% | 141.979% and 116.144% |
| C[C@@H](c1cccc(C#N)c1)n1cc(Cl)cc(C(N)=O)c1=N.Cl | 94.9994% and 100.946% | 88.3604% and 82.5969% | 93.1286% and 91.7219% | 106.099% and 101.903% | 94.9066% and 108.826% | 100.434% and 114.368% |
| COc1c(C)cc(NC(=O)c2nn(Cc3ccc(F)cc3)c3c2CN(C(=O)c2ccc[nH]2)C[C@]3(C)C(N)=O)cc1C | 89.287% and 106.401% | 91.8219% and 96.6587% | 100.506% and 104.328% | 74.723% and 85.5242% | 208.8% and 152.94% | 183.011% and 147.451% |
| CC(=O)Nc1nc(CN2CCC[C@H](Cc3cc(C)nc(C)c3)C2)cs1 [JNJ-73924149] | 83.219% and 91.2416% | 110.349% and 95.2087% | 161.492% and 89.8313% | 217.991% and 98.2452% | 110.009% and 115.731% | 115.696% and 107.702% |
| O=C(NOC[C@H](O)CO)c1ccc(F)c(F)c1Nc1ccc(I)cc1F [MIRDAMETINIB] | 22.725% and 32.892% | 19.7018% and 35.9842% | 6.019% and 17.678% | 3.596% and 12.9307% | 3.1671% and 12.2187% | 2.358% and 7.568% |
| CC(=O)c1cc(-c2ccccc2OCC2CC2)c2ncccn12 | 119.426% and 104.637% | 103.612% and 93.9737% | 135.678% and 108.037% | 170.672% and 99.2081% | 193.281% and 129.503% | 159.696% and 98.6989% |
